Data published in US20100298141A1, “SUBSTITUTED PYRIDINE N-OXIDE HERBICIDES” (E. I. DU PONT DE NEMOURS AND COMPANY, priority 2007, published 2010).

What was measured:
duck salad = assay: Test C flooded paddy test; format: in vivo, Heteranthera limosa; settings: Flood
Method in brief: (§1)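 Under a constant 3 cm flood, test compounds went directly into the paddy water. Following 13 to 15 days of greenhouse growth, treated species and controls were compared by eye.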

velvetleaf [1] = assay: Test C pre-/postemergence test; format: in vivo, Abutilon theophrasti; settings: for Plant response rating, Velvetleaf: 31 g ai/ha, scale 0 to 100 (0 no effect, 100 complete control)
Method in brief: (§2)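 Seeds were planted and treated preemergence with test chemical in a non-phytotoxic solvent mixture containing surfactant. Postemergence applications of the same formulation went onto plants 2 to 18 cm tall (1- to 4-leaf stage). A dash marks no test result.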

barnyardgrass [2] = assay: Test C flooded paddy test; format: in vivo, Echinochloa crus-galli; settings: Flood
Method in brief: as §1

downy brome = assay: Test C pre-/postemergence test; format: in vivo, Bromus tectorum; settings: for Plant response rating, Bromegrass, Downy: 31 g ai/ha, scale 0 to 100 (0 no effect, 100 complete control)
Method in brief: as §2

barnyardgrass [3] = assay: Test A pre-/postemergence greenhouse test; format: in vivo, Echinochloa crus-galli; settings: for Plant response rating, Barnyardgrass: 0 to 100 scale where 0 is no effect and 100 is complete control; for Barnyardgrass plant response rating: 0 to 100 scale
Method in brief: (§3)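 Herbicidal effect is a visual injury score given about ten days post-treatment by comparison with untreated controls. Preemergence plots received a directed spray onto sown loam–sand soil; postemergence plants, at the one- to two-leaf stage and 2–10 cm tall, were sprayed at the same time.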

velvetleaf [4] = assay: Test A pre-/postemergence greenhouse test; format: in vivo, Abutilon theophrasti; settings: for Plant response rating, Velvetleaf: 0 to 100 scale where 0 is no effect and 100 is complete control; for Velvetleaf plant response rating: 0 to 100 scale
Method in brief: as §3

catchweed bedstraw = assay: Test C pre-/postemergence test; format: in vivo, Galium aparine; settings: for Plant response rating, Galium: 31 g ai/ha, scale 0 to 100 (0 no effect, 100 complete control)
Method in brief: as §2

soybean = assay: Test C pre-/postemergence test; format: in vivo, Glycine max
Method in brief: as §2

blackgrass = assay: Test C pre-/postemergence test; format: in vivo, Alopecurus myosuroides; settings: for Plant response rating, Blackgrass: 31 g ai/ha, scale 0 to 100 (0 no effect, 100 complete control)
Method in brief: as §2

pigweed = assay: Test C pre-/postemergence test; format: in vivo, Amaranthus retroflexus; settings: for Plant response rating, Pigweed: 31 g ai/ha, scale 0 to 100 (0 no effect, 100 complete control)
Method in brief: as §2

Surinam grass = assay: Test C pre-/postemergence test; format: in vivo, Brachiaria decumbens; settings: for Plant response rating, Surinam Grass: 31 g ai/ha, scale 0 to 100 (0 no effect, 100 complete control)
Method in brief: as §2

woolly cupgrass = assay: Test C pre-/postemergence test; format: in vivo, Eriochloa villosa; settings: for Plant response rating, Cupgrass, Woolly: 31 g ai/ha, scale 0 to 100 (0 no effect, 100 complete control)
Method in brief: as §2

common ragweed = assay: Test C pre-/postemergence test; format: in vivo, Ambrosia elation
Method in brief: as §2

green foxtail = assay: Test C pre-/postemergence test; format: in vivo, Setaria viridis; settings: for Plant response rating, Foxtail, Green: 31 g ai/ha, scale 0 to 100 (0 no effect, 100 complete control)
Method in brief: as §2

giant foxtail = assay: Test A pre-/postemergence greenhouse test; format: in vivo, Setaria faberi; settings: for Plant response rating, Foxtail, Giant: 0 to 100 scale where 0 is no effect and 100 is complete control; for Foxtail, Giant plant response rating: 0 to 100 scale
Method in brief: as §3

lambsquarters = assay: Test C pre-/postemergence test; format: in vivo, Chenopodium album; settings: for Plant response rating, Lambsquarters: 31 g ai/ha, scale 0 to 100 (0 no effect, 100 complete control)
Method in brief: as §2

crabgrass = assay: Test A pre-/postemergence greenhouse test; format: in vivo, Digitaria sanguinalis; settings: for Plant response rating, Crabgrass, Large: 0 to 100 scale where 0 is no effect and 100 is complete control; for Crabgrass, Large plant response rating: 0 to 100 scale
Method in brief: as §3

[5] = 62 g ai/ha, scale 0 to 100 (0 no effect, 100 complete control)
[6] = 250 g ai/ha, scale 0 to 100, 0 no effect, 100 complete control, 13 to 15 days
[7] = 62 g ai/ha, Preemergence, scale 0 to 100
[8] = 125 g ai/ha, preemergence, scale 0 (no effect) to 100 (complete control)
[9] = preemergence, 250 g ai/ha, scale 0 (no effect) to 100 (complete control)
[10] = Postemergence, 500 g ai/ha, 0 is no effect, 100 is complete control
[11] = Preemergence, 125 g ai/ha, 0 no effect, 100 complete control

CCc1cc[n+]([O-])c([S+]([O-])Cc2c(C(F)(F)F)nn(C)c2OCC(F)(F)F)c1 (stereo not shown) [Compound 59]
Plant response rating, Ducksalad (duck salad; [5]): 40 | Plant response rating, Ducksalad (duck salad; [6]): 90 | Velvetleaf plant response rating (velvetleaf [1]; [7]): 70 | Velvetleaf plant response rating (velvetleaf [1]; [8]): 100 | Plant response rating, Velvetleaf (velvetleaf [1]; Preemergence): 0 | Velvetleaf plant response rating (velvetleaf [1]; [9]): 100 | Plant response rating, Barnyardgrass (barnyardgrass [2]; [5]): 30 | Plant response rating, Barnyardgrass (barnyardgrass [2]; [6]): 60 | Bromegrass, Downy plant response rating (downy brome; [7]): 40 | Bromegrass, Downy plant response rating (downy brome; [8]): 90 | Plant response rating, Bromegrass, Downy (downy brome; Preemergence): 20 | Bromegrass, Downy plant response rating (downy brome; [9]): 100 | Plant response rating, Barnyardgrass (barnyardgrass [3]; Postemergence, 125 g ai/ha): 80 | Barnyardgrass plant response rating (barnyardgrass [3]; [10]): 90 | Barnyardgrass plant response rating (barnyardgrass [3]; [11]): 100 | Plant response rating, Barnyardgrass (barnyardgrass [3]; Preemergence, 500 g ai/ha): 100 | Plant response rating, Velvetleaf (velvetleaf [4]; Postemergence, 125 g ai/ha): 60 | Velvetleaf plant response rating (velvetleaf [4]; [10]): 80 | Velvetleaf plant response rating (velvetleaf [4]; [11]): 60 | Plant response rating, Velvetleaf (velvetleaf [4]; Preemergence, 500 g ai/ha): 100 | Galium plant response rating (catchweed bedstraw; [7]): 100 | Galium plant response rating (catchweed bedstraw; [8]): 100 | Plant response rating, Galium (catchweed bedstraw; Preemergence): 0 | Galium plant response rating (catchweed bedstraw; [9]): 100 | Soybean plant response rating (soybean; [7]): 10 | Soybean plant response rating (soybean; [8]): 100 | Soybean plant response rating (soybean; [9]): 100 | Blackgrass plant response rating (blackgrass; [7]): 95 | Blackgrass plant response rating (blackgrass; [8]): 95 | Plant response rating, Blackgrass (blackgrass; Preemergence): 60 | Blackgrass plant response rating (blackgrass; [9]): 100 | Pigweed plant response rating (pigweed; [7]): 100 | Pigweed plant response rating (pigweed; [8]): 100 | Plant response rating, Pigweed (pigweed; Preemergence): 0 | Pigweed plant response rating (pigweed; [9]): 100 | Surinam Grass plant response rating (Surinam grass; [7]): 80 | Surinam Grass plant response rating (Surinam grass; [8]): 100 | Plant response rating, Surinam Grass (Surinam grass; Preemergence): 40 | Surinam Grass plant response rating (Surinam grass; [9]): 100 | Cupgrass, Woolly plant response rating (woolly cupgrass; [7]): 80 | Cupgrass, Woolly plant response rating (woolly cupgrass; [8]): 80 | Plant response rating, Cupgrass, Woolly (woolly cupgrass; Preemergence): 0 | Cupgrass, Woolly plant response rating (woolly cupgrass; [9]): 100 | Ragweed plant response rating (common ragweed; [7]): 30 | Ragweed plant response rating (common ragweed; [8]): 100 | Ragweed plant response rating (common ragweed; [9]): 100 | Foxtail, Green plant response rating (green foxtail; [7]): 95 | Foxtail, Green plant response rating (green foxtail; [8]): 100 | Plant response rating, Foxtail, Green (green foxtail; Preemergence): 0 | Foxtail, Green plant response rating (green foxtail; [9]): 100 | Plant response rating, Foxtail, Giant (giant foxtail; Postemergence, 125 g ai/ha): 60 | Foxtail, Giant plant response rating (giant foxtail; [10]): 90 | Foxtail, Giant plant response rating (giant foxtail; [11]): 100 | Plant response rating, Foxtail, Giant (giant foxtail; Preemergence, 500 g ai/ha): 100 | Lambsquarters plant response rating (lambsquarters; [7]): 100 | Lambsquarters plant response rating (lambsquarters; [8]): 100 | Plant response rating, Lambsquarters (lambsquarters; Preemergence): 80 | Lambsquarters plant response rating (lambsquarters; [9]): 100 | Plant response rating, Crabgrass, Large (crabgrass; Postemergence, 125 g ai/ha): 50 | Crabgrass, Large plant response rating (crabgrass; [10]): 90 | Crabgrass, Large plant response rating (crabgrass; [11]): 90 | Plant response rating, Crabgrass, Large (crabgrass; Preemergence, 500 g ai/ha): 100

CCc1cc[n+]([O-])c(S(=O)(=O)Cc2c(C(F)(F)F)nn(C)c2OCC(F)(F)F)c1 [Compound 60]
Plant response rating, Ducksalad (duck salad; [5]): 0 | Plant response rating, Ducksalad (duck salad; [6]): 40 | Velvetleaf plant response rating (velvetleaf [1]; [7]): 40 | Velvetleaf plant response rating (velvetleaf [1]; [8]): 100 | Plant response rating, Velvetleaf (velvetleaf [1]; Preemergence): 0 | Velvetleaf plant response rating (velvetleaf [1]; [9]): 100 | Plant response rating, Barnyardgrass (barnyardgrass [2]; [5]): 20 | Plant response rating, Barnyardgrass (barnyardgrass [2]; [6]): 45 | Bromegrass, Downy plant response rating (downy brome; [7]): 55 | Bromegrass, Downy plant response rating (downy brome; [8]): 55 | Plant response rating, Bromegrass, Downy (downy brome; Preemergence): 0 | Bromegrass, Downy plant response rating (downy brome; [9]): 90 | Plant response rating, Barnyardgrass (barnyardgrass [3]; Postemergence, 125 g ai/ha): 80 | Barnyardgrass plant response rating (barnyardgrass [3]; [10]): 90 | Barnyardgrass plant response rating (barnyardgrass [3]; [11]): 90 | Plant response rating, Barnyardgrass (barnyardgrass [3]; Preemergence, 500 g ai/ha): 100 | Plant response rating, Velvetleaf (velvetleaf [4]; Postemergence, 125 g ai/ha): 60 | Velvetleaf plant response rating (velvetleaf [4]; [10]): 70 | Velvetleaf plant response rating (velvetleaf [4]; [11]): 70 | Plant response rating, Velvetleaf (velvetleaf [4]; Preemergence, 500 g ai/ha): 100 | Galium plant response rating (catchweed bedstraw; [7]): 100 | Galium plant response rating (catchweed bedstraw; [8]): 100 | Plant response rating, Galium (catchweed bedstraw; Preemergence): 0 | Galium plant response rating (catchweed bedstraw; [9]): 100 | Soybean plant response rating (soybean; [7]): 50 | Soybean plant response rating (soybean; [8]): 50 | Soybean plant response rating (soybean; [9]): 85 | Blackgrass plant response rating (blackgrass; [7]): 90 | Blackgrass plant response rating (blackgrass; [8]): 100 | Plant response rating, Blackgrass (blackgrass; Preemergence): 85 | Blackgrass plant response rating (blackgrass; [9]): 100 | Pigweed plant response rating (pigweed; [7]): 100 | Pigweed plant response rating (pigweed; [8]): 100 | Plant response rating, Pigweed (pigweed; Preemergence): 100 | Pigweed plant response rating (pigweed; [9]): 100 | Surinam Grass plant response rating (Surinam grass; [7]): 100 | Surinam Grass plant response rating (Surinam grass; [8]): 100 | Plant response rating, Surinam Grass (Surinam grass; Preemergence): 95 | Surinam Grass plant response rating (Surinam grass; [9]): 100 | Cupgrass, Woolly plant response rating (woolly cupgrass; [7]): 100 | Cupgrass, Woolly plant response rating (woolly cupgrass; [8]): 100 | Plant response rating, Cupgrass, Woolly (woolly cupgrass; Preemergence): 100 | Cupgrass, Woolly plant response rating (woolly cupgrass; [9]): 100 | Ragweed plant response rating (common ragweed; [7]): 60 | Plant response rating, Ragweed (common ragweed; Preemergence, 31 g ai/ha, scale 0 to 100 (0 no effect, 100 complete control)): 30 | Ragweed plant response rating (common ragweed; [9]): 90 | Foxtail, Green plant response rating (green foxtail; [7]): 100 | Foxtail, Green plant response rating (green foxtail; [8]): 100 | Plant response rating, Foxtail, Green (green foxtail; Preemergence): 85 | Foxtail, Green plant response rating (green foxtail; [9]): 100 | Plant response rating, Foxtail, Giant (giant foxtail; Postemergence, 125 g ai/ha): 60 | Foxtail, Giant plant response rating (giant foxtail; [10]): 90 | Foxtail, Giant plant response rating (giant foxtail; [11]): 100 | Plant response rating, Foxtail, Giant (giant foxtail; Preemergence, 500 g ai/ha): 100 | Lambsquarters plant response rating (lambsquarters; [7]): 100 | Lambsquarters plant response rating (lambsquarters; [8]): 100 | Plant response rating, Lambsquarters (lambsquarters; Preemergence): 100 | Lambsquarters plant response rating (lambsquarters; [9]): 100 | Plant response rating, Crabgrass, Large (crabgrass; Postemergence, 125 g ai/ha): 50 | Crabgrass, Large plant response rating (crabgrass; [10]): 80 | Crabgrass, Large plant response rating (crabgrass; [11]): 90 | Plant response rating, Crabgrass, Large (crabgrass; Preemergence, 500 g ai/ha): 100
